Patent publication US8563254B2, “Biomarkers of tumor pharmacodynamic response” (Novartis AG, priority 2009, dated 2013)

Assays:
GTL-16 cells = assay: Western blot of total protein lysates, GTL-16; assay type: cell-based, human; conditions: GTL-16, 0.3 μM, 16 hr and 24 hr
Experimental: Total protein lysates were prepared from the GTL-16 and A375 cells with RIPA lysis buffer (Upstate, Millipore Corporation, Charlottesville, Va., USA). Cells were washed with PBS and 500 ul of ice-cold RIPA buffer, containing protease inhibitor cocktail tablet (Roche Diagnostic GmbH, Mannheim, Germany) and phosphatase inhibitors (Sigma-Aldrich, Inc., St. Louis, Mo., USA), was added to each plate on ice. After 15 min the cells were scrapped from the plate surface and spun at 16000 RPM for 10 min at 4° C. The supernatant was collected and frozen at −80° C. Nuclear protein fractions were prepared by the NE-PER nuclear and cytoplasmic extraction kit (Pierce Biotechnology, Rockford, Ill., USA). Proteins were quantified by bicinchoninic acid assay (Pierce Biotechnology, Rockford, Ill., USA) for Western blotting. Primary antibodies specific for NFκB p65, cREL, p-ERK1/2, p-c-jun, ERK1 and Jun were purchased from Santa Cruz Biotechnology (Santa Cruz Biotechnology, Inc., Santa Cruz, Calif., USA) with the exception of Hsp70 and TBP (nuclear loading control), which were obtained from StressGen (StressGen, Assay Designs, Inc., Aim Arbor, Mich., USA) and Abcam (Abcam Inc., Cambridge, Mass., USA), respectively. 4-12% Bis-Tris SDS-PAGE, denaturing, non-reducing gels were loaded with 30 μg of total protein, a SeeBlue2Plus pre-stained protein standard and MES SDS running buffer were utilized for the electrophoretic separation in a XCell SureLock™ Mini-Cell (Invitrogen Corporation, Inc., Carlsbad, Calif., USA). An iBlot™ gel transfer PVDF stack with iBlot™ gel transfer system (Invitrogen) was used. An Odyssey Infrared Imaging System was used to detect the immunocomplex (Li-COR Biotechnologies, Inc., Lincoln, Nebr., USA). Li-COR blocking buffer was used to limit cross-reactivity. Membranes were incubated at 4° C. overnight in the primary antibody diluted in blocking buffer, followed by 1 hr room temperature incubation with a secondary IgG antibody (Li-COR IR dye, Li-COR).

[1] = system: GTL-16 tumor-bearing mice; assay: Hsp70 expression in GTL-16 xenograft tumors (Western blot, IHC); assay type: in vivo; conditions: GTL-16 tumors, single 75 mg/kg dose i.v.
Experimental: (§1) The in vivo study was carried out in strict accordance with Swiss law for animal protection and was approved by the Swiss Cantonal Veterinary Office of Basel-Stadt. GTL-16 (4×10^6) and A375 cells (5×10^6) were inoculated subcutaneously in the right flank in 200 μl Hanks' balanced salt solution (HBSS) or PBS, respectively. Invasive procedures were performed under Forene anesthesia. All experiments were performed in female Harlan HsdNpa: Athymic Nude-nu mice (Laboratory Animal Services, Novartis Pharma AG, Basel). The animals were kept under optimized hygienic conditions with 12 hr dark, 12 hr light conditions. The animals were fed food and water ad libitum. A single 75 mg/kg and 50 mg/kg dose of Hsp90 inhibitor, NVP-AUY922 was administered to the GTL-16 and A375 tumor-bearing mice, when tumors had reached a mean volume of 200 mm^3-500 mm^3 in size. Mice in the control group were injected with the vehicle (D5W). Serum was isolated and tumors dissected over the time course 0-168 hr. Tumors were cut in two halves. One half was paraffin embedded and the other snap frozen, and stored at −80° C.
(§2) Total protein lysates were prepared from the GTL-16 and A375 cells with RIPA lysis buffer (Upstate, Millipore Corporation, Charlottesville, Va., USA). […] Proteins were quantified by bicinchoninic acid assay (Pierce Biotechnology, Rockford, Ill., USA) for Western blotting. […]

A375 tumor-bearing mice = assay: Hsp70 expression in A375 xenograft tumors; assay type: in vivo; conditions: single 50 mg/kg dose i.v.
Experimental: as §1, §2

## CCNC(=O)c1noc(-c2cc(C(C)C)c(O)cc2O)c1-c1ccc(CN2CCOCC2)cc1 [NVP-AUY922, 5-(2,4-Dihydroxy-5-isopropyl-phenyl)-4-(4-morhpolin-4-ylmethyl-phenyl)-isoxazole-3-carboxylic acid ethylamide]
GTL-16 cells
  Hsp70 induction: induction was observed
  levels of phospho-ERK1/2 and phospho-c-Jun: significantly diminished
  total ERK and c-Jun levels: unaffected
  total cellular levels of NFκB p65 and c-REL: essentially unchanged
[1]
  earliest time post-treatment at which Hsp70 is induced in tumor: 6 h
  stable Hsp70 induction in tumor up to: 48 h
A375 tumor-bearing mice
  Hsp70 induction in tumor compared with GTL-16 model: same pattern of Hsp70 induction
